One experiment deals with T1, CfamOBP2 (Canis lupus familiaris, UniProt O18874).
T1 construct: His tag (from pQE31 vector) (N); made in house; host or cells: E. coli M15 (plasmid pQE31)
T1 sequence (O18874 19-180): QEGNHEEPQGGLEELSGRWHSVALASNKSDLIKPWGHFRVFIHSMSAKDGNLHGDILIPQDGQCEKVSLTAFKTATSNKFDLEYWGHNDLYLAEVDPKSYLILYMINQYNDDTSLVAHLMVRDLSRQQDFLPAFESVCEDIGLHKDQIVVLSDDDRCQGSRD
The experiment is described as follows: Fluorescence competitive binding assay (NPN displacement). The note with it: 2 μM OBP, 4 μM NPN, 20° C., pH 7.5, odorant 0.5-20 μM. As to the method:
(§1) Binding experiments were performed at 20° C. on a spectrofluorometer (Cary-Eclipse (Agilent, USA)) equipped with magnetic stirrers and a Peltier control temperature unit. The fluorescent probes: 1-N-phenylnaphthylamine (NPN) (Sigma, USA), 8-anilinonaphthalene-1-sulfonic acid (1,8-ANS) (Sigma, USA), and SYPRO™ orange (ThermoFischer, France) were excited at 337 nm, 372 nm and 490 nm respectively. Emission spectra were recorded between 350 and 500 nm for NPN; 400 and 600 nm for 1,8-ANS and 510 and 700 nm for SYPRO orange. Fluorescent probe binding experiments were performed in a 2 mL cuvette of 1 cm path length containing 2 μM OBPs in 50 mM potassium phosphate buffer at pH 7.5. The fluorescent probes were prepared in 100% MeOH at 0.1, 1, 10 and 100 mM. The concentration of the different fluorescent probes was increased into the 1 mL solution containing CfamOBPs until the adding allow to reach a fluorescence maximum of emission intensity. The binding curves were then traced using SigmaPlot 12.5 software.
(§2) Ligand competitive binding experiments were performed in cuvettes containing 2 μM OBPs, 10 μM fluorescent probe for CfamOBP1 and its variant (Seq ID No 14) and CfamOBP3, 4 μM fluorescent probe for CfamOBP2 and its variant (Seq ID No 15) and 1.25× fluorescent probe for CfamOBP4, in 50 mM potassium phosphate buffer at pH 7.5.
(§3) Odorants were prepared in 100% MeOH and aliquots were added to final concentrations of 0.5-20 μM. The experiments were performed in triplicate. The obtained data were then traced and analysed using SigmaPlot 12.5 software.

Experiment [1] has as its target T2, CfamOBP2-K83 (variant of Seq ID No 15) (Canis lupus familiaris, UniProt O18874, E83K).
T2 construct: His tag (from pQE31 vector) (N); made in house; host or cells: E. coli M15 (plasmid pQE31)
T2 sequence (O18874 19-180 E83K): T1 sequence (O18874 19-180) with E65K
Described as above. The note with it: 2 μM OBP, 4 μM NPN, 20° C., pH 7.5, odorant 0.5-20 μM. As to the method: as §1, §2, §3

A further experiment addresses T3, CfamOBP1 (Canis lupus familiaris, UniProt O18873).
T3 construct: His tag (from pQE31 vector) (N); made in house; host or cells: E. coli M15 (plasmid pQE31)
The experiment is described as follows: Fluorescence competitive binding assay (1,8-ANS displacement). As to conditions: 2 μM OBP, 10 μM 1,8-ANS, 20° C., pH 7.5, odorant 0.5-20 μM. How it is done:
as §1, with “software. […]” for “software.”
(§4) Odorants were prepared in 100% MeOH and aliquots were added to final concentrations of 0.5-20 μM. […] The obtained data were then traced and analysed using SigmaPlot 12.5 software.

In experiment [2] the target is T4, CfamOBP1-L52 (variant of Seq ID No 14) (Canis lupus familiaris, UniProt O18873, S52L).
T4 construct: His tag (from pQE31 vector) (N); made in house; host or cells: E. coli M15 (plasmid pQE31)
T4 sequence (O18873 19-174 S52L): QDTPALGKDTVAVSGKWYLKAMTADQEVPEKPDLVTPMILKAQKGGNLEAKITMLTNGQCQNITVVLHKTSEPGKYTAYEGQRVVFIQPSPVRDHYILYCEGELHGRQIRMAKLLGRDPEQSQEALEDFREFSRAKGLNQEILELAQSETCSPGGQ
The description is as above. The note with it: 2 μM OBP, 10 μM 1,8-ANS, 20° C., pH 7.5, odorant 0.5-20 μM. How it is done: as §1, with “software. […]” for “software.”
as §4

Another experiment addresses T5, CfamOBP3 (Canis lupus familiaris, UniProt H2B3G5).
T5 construct: His tag (from pQE31 vector) (N); made in house; host or cells: E. coli M15 (plasmid pQE31)
T5 sequence (H2B3G5 16-190): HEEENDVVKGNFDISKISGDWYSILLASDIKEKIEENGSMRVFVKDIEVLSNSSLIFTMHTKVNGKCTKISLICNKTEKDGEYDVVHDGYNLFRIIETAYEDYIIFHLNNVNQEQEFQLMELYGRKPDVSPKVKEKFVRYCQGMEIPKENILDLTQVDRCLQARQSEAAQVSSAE
The experiment is described as follows: Fluorescence competitive binding assay (NPN displacement). As to conditions: 2 μM OBP, 10 μM NPN, 20° C., pH 7.5, odorant 0.5-20 μM. As to the method: as §1, §2, §3

In experiment [3] the target is T6, CfamOBP3-102Y (mutant of Seq ID No 35) (Canis lupus familiaris, UniProt H2B3G5, H102Y).
T6 construct: His tag (MRGSHHHHHH leader of pQE31, then TDP from the BamHI site) (N); made in house; host or cells: E. coli M15 (plasmid pQE31)
T6 sequence (H2B3G5 16-190 H102Y): T5 sequence (H2B3G5 16-190) with H87Y
The experiment can be described thus: Isothermal titration calorimetry. It counts as binding. The note with it: ITC at 25° C., 25 μM protein, 250 μM odorant, pH 7.5; mutant compared with CfamOBP3. How it is done: Titration experiments were carried at 25° C. using isothermal titration microcalorimeter VP-ITC system (Malvern Instruments, Malvern, UK). 100 mM odorant solution in MeOH were diluted to 250 μM into 100 mM potassium phosphate buffer, pH 7.5 and loaded into the syringe. Protein solutions were prepared at 25 μM in the phosphate buffer and degassed directly prior to experiment and injected into the measure cell. Injections of 10 μL ligand solution into the protein containing cell were performed at time intervals of 210 s with a total of 25 injections. Analysis of the experimental data was performed using the Origin 5.0 program (Malvern Instruments, Malvern, UK) and fitted by a model of one binding site. Binding parameters such as stoichiometry (n) and the association constant (KA) were determined by this fitting.

Residue numbers refer to the chain shown, from its start.

T3 sequence (O18873 19-174): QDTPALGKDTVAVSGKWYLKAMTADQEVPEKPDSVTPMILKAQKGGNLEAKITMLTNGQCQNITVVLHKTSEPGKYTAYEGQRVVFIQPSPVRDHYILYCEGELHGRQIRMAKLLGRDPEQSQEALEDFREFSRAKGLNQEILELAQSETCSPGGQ

For the molecule `CC(C)CCCC(C)CCO` (stereo not drawn) [DMO, 3,7-dimethyl-1-octanol], the “displacement of the fluorescent probe” value (at CfamOBP2; in experiment [1]) was “able to displace the probes” in each case.
Take `CC(C)=CCCC(C)CC=O` (stereo not drawn) [citronellal]: the “displacement of the fluorescent probe” value (on CfamOBP1; in experiment [2]) was “able to displace the probes” throughout.
Regarding `COc1nccnc1CC(C)C` [IBMP, 2-isobutyl-3-methoxypyrazine], on CfamOBP3, the “displacement of the fluorescent probe” value is on record as “able to displace the probes”. Further, the “change of Ka value (affinity) versus CfamOBP3” value in experiment [3] is “eight fold increase”.
